# From US10525103B2, “Combined use of a vector encoding a modified receptor and its exogenous agonist in the treatment of seizures” (UCL BUSINESS LTD, priority 2014, dated 2020)
# Like-named read-outs stand apart in the source and are kept apart here.
# How the values were obtained:
# [1] = tested on: human muscarinic acetylcholine receptors mutated to DREADDs; conditions: cited from earlier work
# [2] = cited from earlier work
# [3] = human, in vivo; cited from earlier work
# hM4Di [4] = molecular target: T1, hM4Di (Homo sapiens, UniProt P08173, A203G/Y113C); assay: Overview of hM4Di/CNO treatment in in vivo models of focal epilepsy
# T1 sequence (P08173 1-479 Y113C/A203G): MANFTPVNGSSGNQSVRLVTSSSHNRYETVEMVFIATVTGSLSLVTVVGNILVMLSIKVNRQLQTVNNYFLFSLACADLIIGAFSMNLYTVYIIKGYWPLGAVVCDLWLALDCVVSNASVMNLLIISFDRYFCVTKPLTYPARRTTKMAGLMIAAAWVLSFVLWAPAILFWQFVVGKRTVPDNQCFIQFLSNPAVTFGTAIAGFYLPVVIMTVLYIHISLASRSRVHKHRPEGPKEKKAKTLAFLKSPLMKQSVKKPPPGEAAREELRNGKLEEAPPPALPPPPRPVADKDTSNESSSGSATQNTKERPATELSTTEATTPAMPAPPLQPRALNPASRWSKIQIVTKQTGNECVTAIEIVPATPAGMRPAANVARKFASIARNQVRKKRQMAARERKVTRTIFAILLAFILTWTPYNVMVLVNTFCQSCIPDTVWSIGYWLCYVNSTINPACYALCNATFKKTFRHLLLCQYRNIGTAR
# hM4Di [5] = molecular target: T1, hM4Di; design: host or cells: rat (Sprague-Dawley) primary motor cortex neurons transduced in vivo with AAV5, Camk2a promoter; conditions: in vivo
# hM4Di [6] = molecular target: T1, hM4Di; format: in vivo; design: host or cells: rat (Sprague-Dawley) primary motor cortex neurons transduced in vivo with AAV5, Camk2a promoter
# hM4Di [7] = molecular target: T1, hM4Di; format: in vivo; design: host or cells: rat (Sprague-Dawley) primary motor cortex neurons transduced in vivo with AAV5, Camk2a promoter; conditions: tetanus toxin model; CNO 1 mg/kg i.p. twice at 2-hour interval, 3.5 hour window, vs vehicle; P=0.028 Wilcoxon
# hM3Dq = hM3Dq (Homo sapiens, UniProt P20309, A239G/Y149C); conditions: cited from earlier work
# hM3Dq, sequence (P20309 whole entry Y149C/A239G): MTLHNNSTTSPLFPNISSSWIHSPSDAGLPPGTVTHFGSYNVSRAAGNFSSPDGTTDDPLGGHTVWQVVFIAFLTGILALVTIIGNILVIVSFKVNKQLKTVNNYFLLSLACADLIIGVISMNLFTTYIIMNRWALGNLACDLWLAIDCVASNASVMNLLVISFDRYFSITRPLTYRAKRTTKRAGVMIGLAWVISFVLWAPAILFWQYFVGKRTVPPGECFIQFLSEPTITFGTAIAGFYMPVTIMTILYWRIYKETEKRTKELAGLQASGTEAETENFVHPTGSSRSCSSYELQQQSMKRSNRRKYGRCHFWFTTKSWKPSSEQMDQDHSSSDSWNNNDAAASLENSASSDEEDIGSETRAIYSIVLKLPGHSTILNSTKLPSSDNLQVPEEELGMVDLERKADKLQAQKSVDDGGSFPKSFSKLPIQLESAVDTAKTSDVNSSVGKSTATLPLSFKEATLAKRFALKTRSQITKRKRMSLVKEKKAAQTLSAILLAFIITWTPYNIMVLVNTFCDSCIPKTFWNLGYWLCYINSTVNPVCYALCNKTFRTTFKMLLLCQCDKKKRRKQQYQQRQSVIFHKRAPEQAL
SMILES,activation of DREADD receptors [1],duration of effect on neurons transduced with hM4Di or its excitatory analog [2],"time to full clearance ([2]; rat, in vivo)",half-life [3],duration of seizure suppression / CNO present in the brain (hM4Di [4]; following a single intraperitoneal injection),tolerability of the treatment (hM4Di [4]; hM4Di expression plus systemic CNO),electrographic and motor convulsions (hM4Di [5]),mean 4-14 Hz power (hM4Di [5]),mean frequency of negative deflections in the EEG (hM4Di [5]),number of IF runs that correlate with severe motor seizures (hM4Di [5]),pilocarpine-triggered seizures (hM4Di [5]),time to significant reduction in seizure severity after CNO administration (hM4Di [5]),time to significant reduction in seizure severity after CNO administration (hM4Di [6]; picrotoxin (FIG. 2e)),"attenuation of IF activity (hM4Di [6]; picrotoxin, IF activity correlated with more severe motor seizures)","electrographic discharges (hM4Di [6]; rats with hM4Di AAV in M1, CNO i.p. immediately after focal picrotoxin, vs vehicle)",coastline (hM4Di [7]),frequency of epileptiform bursts (hM4Di [7]),high-frequency power (hM4Di [7]),binding to hM3Dq (hM3Dq)
"C[N+]1([O-])CCN(C2=Nc3cc(Cl)ccc3Nc3ccccc32)CC1 [CNO, clozapine-N-oxide]",readily activated,at least 90 minutes,≤ 12 h,7 to 8 h,45 to 60 min,well tolerated,substantially reduced,significant decrease,significant decrease,significant decrease,profoundly suppressed,≤ 10 min,≤ 10 min,especially marked,attenuated,significantly attenuated,significantly attenuated,significantly attenuated,–
CN1CCN(C2=Nc3ccccc3Cc3ccccc32)CC1 [perlapine],–,–,–,–,–,–,–,–,–,–,–,–,–,–,–,–,–,–,binds
